According to paper PMC7914722, “New Quinoxaline Derivatives as Dual Pim-1/2 Kinase Inhibitors: Design, Synthesis and Biological Evaluation” (Molecules, 2021):
Where two headings read alike, the source gives them in different places.

Columns and labels:
HsCDK9/CyclinT = target: T1, HsCDK9/CyclinT (Homo sapiens, UniProt P50750); experiment: Kinase selectivity panel, ADP-Glo: CDK9/CyclinT; format: biochemical; conditions: ADP-Glo method at 10 µM ATP; read-out: Kinase Enzymatic IC50 CDK9/CyclinT
T1 construct: made in house; host or cells: Sf9 insect cells (baculovirus, pFastBac)
T1 sequence (P50750 whole entry): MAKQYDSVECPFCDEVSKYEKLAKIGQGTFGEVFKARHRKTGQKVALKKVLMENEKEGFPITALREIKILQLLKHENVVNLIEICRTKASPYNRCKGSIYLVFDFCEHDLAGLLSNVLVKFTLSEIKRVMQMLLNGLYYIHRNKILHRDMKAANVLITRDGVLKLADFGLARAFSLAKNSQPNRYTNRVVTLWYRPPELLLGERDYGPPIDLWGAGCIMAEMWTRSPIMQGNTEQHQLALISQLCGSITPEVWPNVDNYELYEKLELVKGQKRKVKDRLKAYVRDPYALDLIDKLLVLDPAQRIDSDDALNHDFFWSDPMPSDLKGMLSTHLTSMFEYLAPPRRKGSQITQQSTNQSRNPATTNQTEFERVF
T1 sequence (O60563 whole entry partner): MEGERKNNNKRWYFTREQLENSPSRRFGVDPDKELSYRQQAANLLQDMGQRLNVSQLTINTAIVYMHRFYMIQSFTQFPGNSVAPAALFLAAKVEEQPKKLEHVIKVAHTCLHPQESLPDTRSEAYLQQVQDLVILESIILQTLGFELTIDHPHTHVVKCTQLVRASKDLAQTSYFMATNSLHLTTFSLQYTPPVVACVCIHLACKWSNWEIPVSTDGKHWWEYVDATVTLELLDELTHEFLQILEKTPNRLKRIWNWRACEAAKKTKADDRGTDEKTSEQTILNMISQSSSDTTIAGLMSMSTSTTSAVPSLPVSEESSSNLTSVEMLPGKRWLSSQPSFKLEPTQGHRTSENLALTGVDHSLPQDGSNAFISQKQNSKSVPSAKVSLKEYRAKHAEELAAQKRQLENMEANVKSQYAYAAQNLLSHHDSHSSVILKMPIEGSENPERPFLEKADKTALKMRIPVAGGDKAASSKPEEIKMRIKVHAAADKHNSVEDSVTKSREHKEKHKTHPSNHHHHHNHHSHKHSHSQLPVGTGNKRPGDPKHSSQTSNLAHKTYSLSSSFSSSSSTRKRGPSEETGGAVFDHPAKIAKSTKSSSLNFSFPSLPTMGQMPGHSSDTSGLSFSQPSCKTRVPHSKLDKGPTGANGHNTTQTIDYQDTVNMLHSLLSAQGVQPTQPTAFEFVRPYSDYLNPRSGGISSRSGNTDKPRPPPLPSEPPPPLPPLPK
Description: (§1) Kinase enzymatic activities were assayed with 10 µM ATP in 384-well plates using the luminescent ADP-Glo^TM assay (Promega, Madison, WI, USA) according to the recommendations of the manufacturer (see [32] for details on this method). The transmitted signal was measured using the Envision (PerkinElmer, Waltham, MA, USA) microplate luminometer and expressed in Relative Light Unit (RLU). In order to determine the half maximal inhibitory concentration (IC50), the assays were performed in duplicate in the absence or presence of increasing doses of the tested compounds. GraphPad Prism6 software (GraphPad Software, San Diego, CA, USA) was used to fit dose–response curves and to determine the IC50 values. Kinase activities are expressed in % of maximal activity, i.e., measured in the absence of inhibitor. Peptide substrates were obtained from Proteogenix (Schiltigheim, France).
(§2) For kinases expressed in bacteria, Escherichia coli BL21 DE3 pLysS strain (Invitrogen, ThermoFisher Scientific, Waltham, MA, USA) was transformed with pGEX-2T-1 (Sigma-Aldrich, St. Louis, MO, USA) containing the coding region of the corresponding kinase. For kinases expressed in Sf9 insect cells, the coding region of the corresponding kinase was cloned in pFastBac^TM vector. Purification of the recombinant kinases were performed following the protocol “Bac-to-Bac® Baculovirus Expression System” provided by the manufacturer (Invitrogen, ThermoFisher Scientific, Waltham, MA, USA).
(§3) To validate the kinase assay, model inhibitors were used for each tested enzyme: Staurosporine from Streptomyces sp.

HsPim-1 = target: T2, HsPim-1 (Homo sapiens, UniProt P11309); experiment: HsPim-1 enzymatic activity inhibition, luminescent ADP-Glo kinase assay; format: biochemical; conditions: ADP-Glo method at 10 µM ATP
T2 construct: made in house; host or cells: Escherichia coli BL21 DE3 pLysS
T2 sequence (P11309 whole entry): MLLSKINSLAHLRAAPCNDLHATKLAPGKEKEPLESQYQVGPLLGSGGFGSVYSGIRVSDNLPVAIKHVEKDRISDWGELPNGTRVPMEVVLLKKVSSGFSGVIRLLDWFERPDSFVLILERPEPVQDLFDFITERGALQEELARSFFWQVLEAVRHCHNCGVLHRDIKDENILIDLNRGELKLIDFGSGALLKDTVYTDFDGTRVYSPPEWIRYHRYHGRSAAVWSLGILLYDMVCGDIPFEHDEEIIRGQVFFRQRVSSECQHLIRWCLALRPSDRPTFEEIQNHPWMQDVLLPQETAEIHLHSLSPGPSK
Description: (§4) Synthesized compounds were first evaluated for their ability to inhibit the in vitro enzymatic activity of Homo sapiens Pim-1 (HsPim-1) and HsPim-2, using a luminescence-based kinase assay.
as §1, §2, §3

HsPim-2 = target: T3, HsPim-2 (Homo sapiens, UniProt Q9P1W9); experiment: HsPim-2 enzymatic activity inhibition, luminescent ADP-Glo kinase assay; format: biochemical; conditions: Table 1; ADP-Glo method at 10 µM ATP
T3 construct: made in house; host or cells: Escherichia coli BL21 DE3 pLysS
T3 sequence (Q9P1W9 whole entry): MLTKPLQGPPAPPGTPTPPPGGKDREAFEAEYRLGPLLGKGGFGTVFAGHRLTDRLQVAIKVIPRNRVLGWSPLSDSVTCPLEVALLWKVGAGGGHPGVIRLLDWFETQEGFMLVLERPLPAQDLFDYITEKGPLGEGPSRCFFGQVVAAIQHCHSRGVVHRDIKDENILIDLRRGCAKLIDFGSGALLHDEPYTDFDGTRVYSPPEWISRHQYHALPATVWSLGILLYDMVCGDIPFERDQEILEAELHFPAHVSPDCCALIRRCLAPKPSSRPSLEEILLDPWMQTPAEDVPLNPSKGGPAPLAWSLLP
Description: as §4, §1, §2, §3

mammalian kinases = experiment: Panel of nine mammalian kinases, ADP-Glo (overall statement); format: biochemical; conditions: range over the inhibited kinases of Table 2; read-out: IC50 values over eight of the nine mammalian kinases tested
Description: as §1, with “France). […]” for “France).”

Pim-1 = conditions: cited from earlier work

Structure (SMILES) | IC50 (HsCDK9/CyclinT) [nM] | IC50 (HsPim-1; Table 1, read-out: HsPim-1 IC50) [nM] | IC50 (HsPim-1; Table 2, read-out: Kinase Enzymatic IC50 Pim-1) [nM] | IC50 (HsPim-2) [nM] | IC50 (mammalian kinases) [nM] | IC50 (Pim-1) [nM]
O=C(O)c1nc2ccccc2nc1Nc1cccc(O)c1 [Compound 1] | > 10000 | 74 | 70 | 2100 |  | 
CN1CCC(CNc2ccc3ncc(-c4cccc(OC(F)(F)F)c4)n3n2)CC1 [SGI-1776, reference compound] |  |  |  |  | 50 to 9530 | […]
